Measurements from paper PMC6522510 (Nature Communications, 2019).
Read-outs that look alike come from different tables or passages of the source.

Key:
Experiment in all cases: Secondary dose-response HTS, Cell Titer Glo; call rule not given here
Type in all cases: cell-based, human
MOLM-13 = details: MOLM-13
U937 = system: U937
MV4-11 = details: MV4-11; for EC50: Homo sapiens
CMK = details: CMK
M07e = system: M07e
CMS = system: CMS
ML2 = details: ML-2
CHRF288-11 = system: CHRF288-11
[1] = secondary high-throughput screen, U937
[2] = secondary high-throughput screen
[3] = secondary high-throughput screen, M07e
[4] = secondary high-throughput screen, CMS
[5] = secondary high-throughput screen, CHRF288-11
[6] = secondary high-throughput screen, U937, read-out: average effective concentration, U937
[7] = secondary high-throughput screen, M07e, read-out: average effective concentration, M07e
[8] = secondary high-throughput screen, read-out: average effective concentration, ML-2
[9] = secondary high-throughput screen, CHRF288-11, read-out: average effective concentration, CHRF288-11
[10] = Homo sapiens, HTS, secondary high-throughput screen, CMS, read-out: average effective concentration, CMS
[11] = Homo sapiens, M-07e, secondary high-throughput screen, M07e, read-out: average effective concentration, M07e
[12] = Homo sapiens, secondary high-throughput screen, read-out: average effective concentration, MOLM-13
[13] = Homo sapiens, U-937, secondary high-throughput screen, U937, read-out: average effective concentration, U937
[14] = secondary high-throughput screen, read-out: average effective concentration, MV4-11
[15] = Homo sapiens, secondary high-throughput screen, read-out: average effective concentration, CMK
[16] = Homo sapiens, secondary high-throughput screen, read-out: average effective concentration, ML-2
[17] = Homo sapiens, HTS, secondary high-throughput screen, CHRF288-11, read-out: average effective concentration, CHRF288-11

SMILES | average effective concentration, U937 (U937; [1]) | average effective concentration, MV4-11 (MV4-11; [2]) | average effective concentration, CMK (CMK; [2]) | average effective concentration, M07e (M07e; [3]) | average effective concentration, CMS (CMS; [4]) | average effective concentration, ML-2 (ML2; [2]) | average effective concentration, CHRF288-11 (CHRF288-11; [5]) | average effective concentration, MOLM-13 (MOLM-13; [2]) | EC50 (M07e; [7]) [nM] | EC50 (CMS; [10]) [nM] | EC50 (M07e; [11]) [nM] | other results
O=[N+]([O-])c1c(Nc2cc(F)cc(Cl)c2)ccc2nonc12 [HIF-C2] | Inactive | Inactive | Inactive | Inactive | Inactive | Inactive | Inactive |  |  |  |  | EC50 (MOLM-13; secondary high-throughput screen, read-out: average effective concentration, MOLM-13): 13 nM
O=C1c2ccccc2-c2nc3nnnn3nc21.O=C1c2ccccc2-c2nn3nnnc3nc21 [KP-372-1] |  | Inactive |  |  |  |  |  | Inactive | 53 |  |  | EC50 (U937; [6]): 10 nM; EC50 (CMK; secondary high-throughput screen, read-out: average effective concentration, CMK): 24 nM; EC50 (CMS; secondary high-throughput screen, CMS, read-out: average effective concentration, CMS): 31 nM; EC50 (ML2; [8]): 6 nM; EC50 (CHRF288-11; [9]): 38 nM
C[C@@H]1CN(CC(=O)Nc2ccc3c(c2)Cc2cccc(-c4cc(=O)cc(N5CCOCC5)o4)c2S3)C[C@H](C)O1 [KU60019] | Inactive | Inactive | Inactive | Inactive |  | Inactive | Inactive | Inactive |  | > 10000 |  | 
C[N+](C)(C)[C@@H](Cc1c[nH]c(=S)[nH]1)C(=O)[O-] [L-(+)-ERGOTHIONEINE] | Inactive | Inactive | Inactive |  | Inactive | Inactive | Inactive | Inactive | 3200 |  |  | 
Cn1c(/C=C/C(=O)NO)ccc1/C=C/C(=O)c1cccc(F)c1 [MC1568] |  | Inactive | Inactive |  | Inactive |  |  | Inactive | 460 |  |  | EC50 (U937; [6]): 3400 nM; EC50 (ML2; [8]): 4300 nM; EC50 (CHRF288-11; [9]): 4900 nM
CCOC(=O)c1cc2ccccc2nc1C [MC-1626] | Inactive | Inactive | Inactive | Inactive | Inactive | Inactive | Inactive | Inactive |  |  |  | 
CC12CC3CC(C)(C1)CC(N)(C3)C2 [MEMANTINE] | Inactive | Inactive | Inactive |  | Inactive | Inactive | Inactive | Inactive |  |  | > 10000 | 
CN(C)c1ccc2nc3ccc(=[N+](C)C)cc-3sc2c1 [METHYLENE BLUE] |  |  |  |  |  |  |  |  |  | > 10000 | > 10000 | EC50 (MOLM-13; [12]): 2000 nM; EC50 (U937; [13]): 10000 nM; EC50 (MV4-11; [14]): 1300 nM; EC50 (CMK; [15]): 3400 nM; EC50 (ML2; [16]): 5900 nM; EC50 (CHRF288-11; [17]): 6200 nM
CO[C@@]12[C@H](COC(N)=O)C3=C(C(=O)C(C)=C(N)C3=O)N1C[C@@H]1N[C@@H]12 [MITOMYCIN C] |  |  |  |  |  |  |  |  |  | 10000 | 9400 | EC50 (MOLM-13; [12]): 2800 nM; EC50 (U937; [13]): 4400 nM; EC50 (MV4-11; [14]): 4100 nM; EC50 (CMK; [15]): 770 nM; EC50 (ML2; [16]): 2400 nM; EC50 (CHRF288-11; [17]): 750 nM
O=C1c2c(O)ccc(O)c2C(=O)c2c(NCCNCCO)ccc(NCCNCCO)c21 [Mitoxantrone, reference compound] |  |  |  |  |  |  |  |  |  |  |  | EC50 (MOLM-13; Homo sapiens, secondary HTS, 72 h, average of triplicate, read-out: EC50 MOLM-13): 10 nM; EC50 (U937; Homo sapiens, U-937, secondary HTS, 72 h, average of triplicate, read-out: EC50 U937): 30 nM; EC50 (MV4-11; secondary HTS, 72 h, average of triplicate, read-out: EC50 MV4-11): 1 nM; EC50 (CMK; Homo sapiens, secondary HTS, 72 h, average of triplicate, read-out: EC50 CMK): 40 nM; EC50 (M07e; Homo sapiens, M-07e, secondary HTS, 72 h, average of triplicate, read-out: EC50 M07e): 30 nM; EC50 (CMS; Homo sapiens, secondary HTS, 72 h, average of triplicate, read-out: EC50 CMS): 80 nM; EC50 (ML2; Homo sapiens, secondary HTS, 72 h, average of triplicate, read-out: EC50 ML2): 240 nM; EC50 (CHRF288-11; Homo sapiens, secondary HTS, 72 h, average of triplicate, read-out: EC50 CHRF288-11): 20 nM
